{
  "source": "patent US5385910A",
  "about": "“Gem-distributed esters of rapamycin” (American Home Products Corporation, priority 1993, dated 1995)",
  "key": {"[1]": {"test_system": "thymus cells of normal BALB/c mice (PHA and IL-1 induced lymphocyte proliferation)", "test": "comitogen-induced thymocyte proliferation procedure (LAF)", "type": "cell-based", "settings": "for IC50: read-out: LAF IC50", "description": "(§1) Immunosuppressive activity for representative compounds of this invention was evaluated in an in vitro standard pharmacological test procedure to measure lymphocyte proliferation (LAF) and in three in vivo standard pharmacological test procedures. The pinch skin graft test procedure measures the immunosuppressive activity of the compound tested as well as the ability of the compound tested to inhibit or treat transplant rejection. The adjuvant arthritis standard pharmacological test procedure, which measures the ability of the compound tested to inhibit immune mediated inflammation. The adjuvant arthritis test procedure is a standard pharmacological test procedure for rheumatoid arthritis. Representative compounds of this invention were also evaluated in a heart allograft standard pharmacological test procedure which measures immunosuppressive activity of the compound tested as well as the ability of the compound tested to inhibit or treat transplant rejection. The procedures for these standard pharmacological test procedures are provided below.\nThe comitogen-induced thymocyte proliferation procedure (LAF) was used as an in vitro measure of the immunosuppressive effects of representative compounds. Briefly, cells from the thymus of normal BALB/c mice are cultured for 72 hours with PHA and IL-1 and pulsed with tritiated thymidine during the last six hours. Cells are cultured with and without various concentrations of rapamycin, cyclosporin A, or test compound. Cells are harvested and incorporated radioactivity is determined. Inhibition of lymphoproliferation is assessed as percent change in counts per minute from non-drug treated controls. For each compound evaluated, rapamycin was also evaluated for the purpose of comparison. An IC50 was obtained for each test compound as well as for rapamycin. […] The results obtained are provided as an IC50."}, "[2]": {"test_system": "pinch skin graft from male BALB/c donors transplanted to male C3 H(H-2K) recipients", "test": "pinch skin graft survival test procedure", "type": "in vivo, C3 H(H-2K) recipients (mice)", "settings": "for Skin graft survival time (mean survival time ± S.D.): 4 mg/kg, intraperitoneally or orally, untreated grafts rejected within 6-7 days", "quoted_text": "Representative compounds of this invention were also evaluated in an in vivo test procedure designed to determine the survival time of pinch skin graft from male BALB/c donors transplanted to male C3 H(H-2K) recipients. […] Briefly, a pinch skin graft from the donor was grafted on the dorsum of the recipient as a allograft, and an isograft was used as control in the same region. The recipients were treated with either varying concentrations of test compounds intraperitoneally or orally. Rapamycin was used as a test control. Untreated recipients serve as rejection control. The graft was monitored daily and observations were recorded until the graft became dry and formed a blackened scab. This was considered as the rejection day. The mean graft survival time (number of days±S.D.) of the drug treatment group was compared with the control group. […] Results are expressed as the mean survival time in days. Untreated (control) pinch skin grafts are usually rejected within 6-7 days. Compounds were tested using a dose of 4 mg/kg."}, "[3]": {"test_system": "Freud's Complete Adjuvant induced arthritis in rats", "test": "adjuvant arthritis standard pharmacological test procedure", "type": "in vivo, male inbread Wistar Lewis rats", "settings": "5 mg/kg oral, 7 doses, day 16; more negative = more potent", "description": "as §1, with “The procedures for these standard pharmacological test procedures are provided below.” left out\nThe adjuvant arthritis standard pharmacological test procedure measures the ability of test compounds to prevent immune mediated inflammation and inhibit or treat rheumatoid arthritis. […] Both hind paws are measured on days 16, 23, and 30. The difference in paw volume (mL) from day 16 to day 0 is determined and a percent change from control is obtained. […]"}, "[4]": {"test_system": "heart allograft from BN rat neonate donors in Lewis rats", "test": "heterotropic heart allograft standard pharmacological test procedure", "type": "in vivo", "settings": "300 μg/day, i.p.; untreated allografts rejected in about 9-10 days", "description": "as §1\nThe ability of the compounds of this invention to induce immunosuppression and inhibit or treat transplantation rejection was evaluated in a heterotropic heart allograft standard pharmacological test procedure that emulates transplantation rejection that occurs in humans. The following briefly describes the procedure that was used. […]"}, "[5]": {"test_system": "experimental allergic encephalomyelitis", "settings": "model for multiple sclerosis; cited from earlier work"}, "Candida albicans": {"test_system": "Candida albicans", "settings": "in vitro and in vivo, particularly against Candida albicans; cited from earlier work"}, "adjuvant arthritis": {"test_system": "adjuvant arthritis", "settings": "model for rheumatoid arthritis; cited from earlier work"}, "IgE-like antibodies": {"test_system": "IgE-like antibodies", "settings": "cited from earlier work"}, "[6]": {"settings": "thymocytes cultured 72 hours with PHA and IL-1, tritiated thymidine last six hours"}, "[7]": {"settings": "thymocytes cultured 72 hours with PHA and IL-1, tritiated thymidine last six hours, hydrochloride salt"}, "[8]": {"settings": "thymocytes cultured 72 hours with PHA and IL-1, tritiated thymidine last six hours, maleate salt"}},
  "note": "Values joined by “and” are separate entries in the source; they are usually repeats but may differ in a detail not shown here. Equal values may be shown once. Where a name gives a salt, the structure may show the parent alone. Read-outs that look alike come from different tables or passages of the source.",
  "data": [
    {"smiles": "CO[C@H]1C[C@@H]2CC[C@@H](C)[C@@](O)(O2)C(=O)C(=O)N2CCCC[C@H]2C(=O)O[C@H]([C@H](C)C[C@@H]2CCC(=O)[C@H](OC)C2)CC(=O)[C@H](C)/C=C(\\C)[C@@H](OC(=O)CN(C)C)[C@@H](OC)C(=O)[C@H](C)C[C@H](C)/C=C/C=C/C=C/1C", "note": "[Example 1, 42-Oxorapamycin-31-ester with 31-N,N-dimethylglycine]", "values": [
      {"measurement": "IC50", "setting": "[1]; [6]", "value": 9.7, "unit": "nM"},
      {"measurement": "Skin graft survival time (mean survival time ± S.D.)", "setting": "[2]", "value": "9.6 ± 0.9", "unit": "days"}
    ]},
    {"smiles": "CO[C@H]1C[C@@H]2CC[C@@H](C)[C@@](O)(O2)C(=O)C(=O)N2CCCC[C@H]2C(=O)O[C@H]([C@H](C)C[C@@H]2CCC(=O)[C@H](OC)C2)CC(=O)[C@H](C)/C=C(\\C)[C@@H](OC(=O)CN(C)C)[C@@H](OC)C(=O)[C@H](C)C[C@H](C)/C=C/C=C/C=C/1C", "note": "[Example 2, 42-Oxorapamycin-31-ester with 31-N,N-dimethylglycine hydrochloride salt]", "values": [
      {"measurement": "IC50", "setting": "[1]; [7]", "value": 23.4, "unit": "nM"},
      {"measurement": "Skin graft survival time (mean survival time ± S.D.)", "setting": "[2]; hydrochloride salt", "value": "10.0 ± 0.0 days and 10.3 ± 0.5 days"}
    ]},
    {"smiles": "CO[C@H]1C[C@@H]2CC[C@@H](C)[C@@](O)(O2)C(=O)C(=O)N2CCCC[C@H]2C(=O)O[C@H]([C@H](C)C[C@@H]2CCC(=O)[C@H](OC)C2)CC(=O)[C@H](C)/C=C(\\C)[C@@H](OC(=O)CN(C)C)[C@@H](OC)C(=O)[C@H](C)C[C@H](C)/C=C/C=C/C=C/1C", "note": "[Example 3, 42-Oxorapamycin-31-ester with 31-N,N-dimethylglycine maleate salt]", "values": [
      {"measurement": "IC50", "setting": "[1]; [8]", "value": 14.4, "unit": "nM"},
      {"measurement": "Skin graft survival time (mean survival time ± S.D.)", "setting": "[2]; maleate salt", "value": "9.2 ± 1.3", "unit": "days"}
    ]},
    {"smiles": "CO[C@H]1C[C@@H]2CC[C@@H](C)[C@@](O)(O2)C(=O)C(=O)N2CCCC[C@H]2C(=O)O[C@H]([C@H](C)C[C@@H]2CC[C@@H](OC(=O)C(C)(C)NC(=O)OCC3c4ccccc4-c4ccccc43)[C@H](OC)C2)CC(=O)[C@H](C)/C=C(\\C)[C@@H](O)[C@@H](OC)C(=O)[C@H](C)C[C@H](C)/C=C/C=C/C=C/1C", "note": "[Example 4, Rapamycin 42-ester with 2-(9H-fluoren-9-ylmethoxycarbonylamino)-2-methylpropionic acid]", "values": [
      {"measurement": "immunosuppressive activity in the LAF procedure (in words)", "setting": "[1]", "value": "shown to have immunosuppressive activity"},
      {"measurement": "Skin graft survival time (mean survival time ± S.D.)", "setting": "[2]", "value": "11.7 ± 0.8 days and 14.2 ± 0.6 days"},
      {"measurement": "immunosuppressive activity in the skin graft procedure (in words)", "setting": "[2]; mouse, in vivo", "value": "shown to have immunosuppressive activity"}
    ]},
    {"smiles": "CO[C@H]1C[C@@H]2CC[C@@H](C)[C@@](O)(O2)C(=O)C(=O)N2CCCC[C@H]2C(=O)O[C@H]([C@H](C)C[C@@H]2CC[C@@H](OC(=O)C(C)(C)N)[C@H](OC)C2)CC(=O)[C@H](C)/C=C(\\C)[C@@H](O)[C@@H](OC)C(=O)[C@H](C)C[C@H](C)/C=C/C=C/C=C/1C", "note": "[Example 5, Rapamycin 42-ester with 2-amino-2-methylpropionic acid]", "values": [
      {"measurement": "Skin graft survival time (mean survival time ± S.D.)", "setting": "[2]", "value": "12.3 ± 1.0 days and 11.8 ± 1.3 days"}
    ]},
    {"smiles": "CO[C@H]1C[C@@H]2CC[C@@H](C)[C@@](O)(O2)C(=O)C(=O)N2CCCC[C@H]2C(=O)O[C@H]([C@H](C)C[C@@H]2CC[C@@H](OC(=O)C(C)(C)N)[C@H](OC)C2)CC(=O)[C@H](C)/C=C(\\C)[C@@H](O)[C@@H](OC)C(=O)[C@H](C)C[C@H](C)/C=C/C=C/C=C/1C", "note": "[Example 6, Rapamycin 42-ester with 2-amino-2-methylpropionic acid maleate salt]", "values": [
      {"measurement": "IC50", "setting": "[1]; [8]", "value": "5.3 nM and 8.4 nM"},
      {"measurement": "Skin graft survival time (mean survival time ± S.D.)", "setting": "[2]; maleate salt", "value": "12.0 ± 0.0 days and 11.0 ± 0.9 days"},
      {"measurement": "Percent change in adjuvant arthritis versus control (uninjected paw)", "setting": "[3]", "value": -73, "unit": "%"},
      {"measurement": "Heart allograft survival time (mean)", "setting": "[4]", "value": 19.11, "unit": "days"}
    ]},
    {"smiles": "CO[C@H]1C[C@@H]2CC[C@@H](C)[C@@](O)(O2)C(=O)C(=O)N2CCCC[C@H]2C(=O)O[C@H]([C@H](C)C[C@@H]2CC[C@@H](OC(=O)C(C)(C)N)[C@H](OC)C2)CC(=O)[C@H](C)/C=C(\\C)[C@@H](O)[C@@H](OC)C(=O)[C@H](C)C[C@H](C)/C=C/C=C/C=C/1C", "note": "[Example 7, Rapamycin 42-ester with 2-amino-2,-methylpropionic acid hydrochloride salt]", "values": [
      {"measurement": "IC50", "setting": "[1]; [7]", "value": 3.9, "unit": "nM"},
      {"measurement": "Skin graft survival time (mean survival time ± S.D.)", "setting": "[2]; hydrochloride salt", "value": "10.2 ± 1.2", "unit": "days"}
    ]},
    {"smiles": "CO[C@H]1C[C@@H]2CC[C@@H](C)[C@@](O)(O2)C(=O)C(=O)N2CCCC[C@H]2C(=O)O[C@H]([C@H](C)C[C@@H]2CC[C@@H](OC(=O)C3(N)CCCC3)[C@H](OC)C2)CC(=O)[C@H](C)/C=C(\\C)[C@@H](O)[C@@H](OC)C(=O)[C@H](C)C[C@H](C)/C=C/C=C/C=C/1C", "note": "[Example 10, Rapamycin 42-ester with 1-aminocyclopentane carboxylic acid]", "values": [
      {"measurement": "IC50", "setting": "[1]; [6]", "value": 6, "unit": "nM"},
      {"measurement": "Skin graft survival time (mean survival time ± S.D.)", "setting": "[2]", "value": "10.5 ± 0.6 days and 10.2 ± 1.0 days"}
    ]},
    {"smiles": "CO[C@H]1C[C@@H]2CC[C@@H](C)[C@@](O)(O2)C(=O)C(=O)N2CCCC[C@H]2C(=O)O[C@H]([C@H](C)C[C@@H]2CC[C@@H](OC(=O)C3(N)CCCC3)[C@H](OC)C2)CC(=O)[C@H](C)/C=C(\\C)[C@@H](O)[C@@H](OC)C(=O)[C@H](C)C[C@H](C)/C=C/C=C/C=C/1C", "note": "[Example 11, Rapamycin 42-ester with 1-aminocyclopentane carboxylic acid hydrochloride salt]", "values": [
      {"measurement": "IC50", "setting": "[1]; [7]", "value": 0.63, "unit": "nM"},
      {"measurement": "Skin graft survival time (mean survival time ± S.D.)", "setting": "[2]; hydrochloride salt", "value": "10.3 ± 0.5 days and 11.5 ± 0.8 days and 12.3 ± 1.0 days"}
    ]},
    {"smiles": "CO[C@H]1C[C@@H]2CC[C@@H](C)[C@@](O)(O2)C(=O)C(=O)N2CCCC[C@H]2C(=O)O[C@H]([C@H](C)C[C@@H]2CC[C@@H](OC(=O)C3(N)CCCCC3)[C@H](OC)C2)CC(=O)[C@H](C)/C=C(\\C)[C@@H](O)[C@@H](OC)C(=O)[C@H](C)C[C@H](C)/C=C/C=C/C=C/1C", "note": "[Example 14, Rapamycin 42-ester with 1-aminocyclohexane carboxylic acid]", "values": [
      {"measurement": "Skin graft survival time (mean survival time ± S.D.)", "setting": "[2]", "value": "10.6 ± 0.5 days and 12.4 ± 1.1 days"}
    ]},
    {"smiles": "CO[C@H]1C[C@@H]2CC[C@@H](C)[C@@](O)(O2)C(=O)C(=O)N2CCCC[C@H]2C(=O)O[C@H]([C@H](C)C[C@@H]2CC[C@@H](OC(=O)C3(N)CCCCC3)[C@H](OC)C2)CC(=O)[C@H](C)/C=C(\\C)[C@@H](O)[C@@H](OC)C(=O)[C@H](C)C[C@H](C)/C=C/C=C/C=C/1C", "note": "[Example 15, Rapamycin 42-ester with 1-aminocyclohexane carboxylic acid hydrochloride salt]", "values": [
      {"measurement": "IC50", "setting": "[1]; [7]", "value": "0.7 nM and 0.4 nM"},
      {"measurement": "Skin graft survival time (mean survival time ± S.D.)", "setting": "[2]; hydrochloride salt", "value": "11.5 ± 1.2 days and 11.2 ± 0.8 days"}
    ]},
    {"smiles": "CO[C@H]1C[C@@H]2CC[C@@H](C)[C@@](O)(O2)C(=O)C(=O)N2CCCC[C@H]2C(=O)O[C@H]([C@H](C)C[C@@H]2CC[C@@H](O)[C@H](OC)C2)CC(=O)[C@H](C)/C=C(\\C)[C@@H](O)[C@@H](OC)C(=O)[C@H](C)C[C@H](C)/C=C/C=C/C=C/1C", "note": "[rapamycin]", "values": [
      {"measurement": "IC50", "setting": "[1]; Mus musculus, Lymphocyte", "value": "0.4 to 6.8", "unit": "nM"},
      {"measurement": "effect in the experimental allergic encephalomyelitis model (in words)", "setting": "[5]", "value": "effective"},
      {"measurement": "antifungal activity (in words)", "setting": "Candida albicans", "value": "antifungal activity"},
      {"measurement": "effect in the adjuvant arthritis model (in words)", "setting": "adjuvant arthritis", "value": "effective"},
      {"measurement": "formation of IgE-like antibodies (in words)", "setting": "IgE-like antibodies", "value": "effectively inhibited"}
    ]}
  ]
}
